Experimental data from patent publication USRE46943E1, “Radioprotector compounds and methods” (PETER MACCALLUM CANCER INSTITUTE, priority 2010, dated 2018).

How the values were obtained:
[1] = system: transformed human keratinocyte cell line (FEP 1811); assay: Clonogenic survival cell culture assay for cytotoxicity; assay type: cell-based; conditions: Homo sapiens, Keratinocyte, light or radiation study; un-irradiated keratinocytes, one hour drug exposure, colonies counted after eight days; read-out: C50 (concentration of radioprotector that results in 50% clonogenic survival)
In short: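 Mid-log monolayers exposed to test drug for 1 h, then pronase-dispersed and plated; colonies counted after 8 days. For […], irradiation at 0.6 Gy per minute began 30 min after drug addition, with total drug exposure held at 60 min before plating for clonogenic survival.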

[2] = system: transformed human keratinocyte cell line (FEP 1811); assay: Clonogenic survival cell culture assay for radioprotective activity (12 Gy 137Cs gamma irradiation); assay type: cell-based; conditions: 12 Gy; for DMF10 (dose modification factor at a concentration of 10 microM of radioprotector): 10 microM radioprotector; for DMFm (dose modification factor at maximum protection): DMF=Dp/Dc at survival level Sm; for PF (protection factor = Sm/So): survival at maximum protection vs irradiation only
In short: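 Survival after irradiation gave protection factor PF = Sm/So (maximum-protection survival over irradiation-only survival). DMF = Dp/Dc is the ratio of doses giving survival Sm with and without radioprotector. DMF10 uses survival at 10 microM radioprotector in place of Sm.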

mice = assay: Radioprotection of mouse jejunum, subcutaneous administration: local reaction at injection site; assay type: in vivo; conditions: subcutaneous solutions in polyethylene glycol (MW 400), similar experiments with the jejunum model
Method: 2-Hydroxypropyl-β-cyclodextrin (HPCD, Sigma-Aldrich, typical MW 1540) vehicle solution was prepared by dissolving 3.6 g of HPCD in 9.3 mL of phosphate buffered saline (PBS) resulting in 30% v/w solution. […] The concentration of M2PB was measured following appropriate dilution in 45% MeOH 0.1% TFA using an extinction coefficient […] at 345 nm. The M2PB/HPCD stock was diluted to 8.75 mg/mL (22 mM) in HPCD vehicle to produce the final M2PB/HPCD formulation, which was injected subcutaneously into mice, between the shoulder blades (scruff of the neck) at a volume of 8×10^−3 ml/g body weight.
The subsequent irradiation and analysis was as described for Example 56.

For `CN1CCN(c2ccc3nc(-c4ccc5nc(-c6cc(C(F)(F)F)ccn6)[nH]c5c4)[nH]c3c2)CC1` [Example 48, 2-(5′-(5″-(4′″-methylpiperazin-1′″-yl)benzimidazol-2″-yl)benzimidazol-2′-yl)-4-(trifluoromethyl)pyridine], the IC50 [1] was 23.3 µM, the melting point was 203 to 208 °C and the “DMF10 (dose modification factor at a concentration of 10 microM of radioprotector)” value (“DMF10” for short) [2] was 2.58. For the same compound, the “DMFm (dose modification factor at maximum protection)” value (from here on “DMFm”) [2] was 2.75 and the “PF (protection factor = Sm/So)” value [2] was 63.8.

For `CN1CCN(c2ccc3nc(-c4ccc5nc(-c6ccc(C(F)(F)F)cn6)[nH]c5c4)[nH]c3c2)CC1` [Example 49, 2-(5′-(5″-(4′″-methylpiperazin-1′″-yl)benzimidazol-2″-yl)benzimidazol-2′-yl)-5-(trifluoromethyl)pyridine], the IC50 [1] was 12.2 µM, the melting point was 320 °C (dec.) and the “DMF10” value [2] was 2.21. The “DMFm” value [2] was 2.38 and the “PF (protection factor = Sm/So)” value [2] was 33.1.

With `Cc1ccnc(-c2nc3ccc(-c4nc5ccc(N6CCC(O)CC6)cc5[nH]4)cc3[nH]2)c1` [Example 50, 2-(5′-(5″-(4′″-hydroxypiperidin-1′″-yl)benzimidazol-2″-yl)benzimidazol-2′-yl)-4-methylpyridine] the IC50 [1] was 134 µM, the melting point was 204 to 209 °C and the “DMF10” value [2] was 1.33. For the same compound, the “DMFm” value [2] was 1.79 and the “PF (protection factor = Sm/So)” value [2] was 23.5.

With `Cc1ccc(-c2nc3ccc(-c4nc5ccc(N6CCC(O)CC6)cc5[nH]4)cc3[nH]2)nc1` [Example 51, 2-(5′-(5″-(4′″-hydroxypiperidin-1′″-yl)benzimidazol-2″-yl)benzimidazol-2′-yl)-5-methylpyridine] the IC50 [1] was 124 µM, the melting point was 208 to 213 °C and the “DMF10” value [2] was 1.90. For the same compound, the “DMFm” value [2] was 2.07 and the “PF (protection factor = Sm/So)” value [2] was 58.7.

For `Cc1cc(N(C)C)ccc1-c1nc2ccc(-c3nc4ccc(N5CCN(C)CC5)cc4[nH]3)cc2[nH]1` [methylproamine, reference compound], the “local reaction or toxicity at the site of subcutaneous injection” value (mice) was “had been observed”.
